{
  "source": "patent US20240108654A1",
  "about": "“COMBINATION OF A T CELL THERAPY AND A DGK INHIBITOR” (Juno Therapeutics, Inc., priority 2021, published 2024)",
  "format_in_all_cases": "cell-based, human",
  "key": {"[1]": {"system": "anti-CD19 CAR-expressing T cells", "experiment": "CAR-T cell phenotype after stimulation with CAR-specific anti-idiotypic antibody (flow cytometry)", "conditions": "48-hour stimulation with 3 or 30 μg/mL anti-idiotypic antibody; compound 0.1-1000 nM; two donors", "source_text": "T cell compositions containing T cells expressing an exemplary anti-CD19 CAR were generated from leukapheresis samples from two healthy human adult donors by a process that included immunoaffinity-based selection of T cells by separately selecting CD4+ and CD8+ cells from the samples, resulting in two compositions enriched for CD4+ and CD8+ cells, respectively, per donor. Cells of the enriched CD4+ and CD8+ compositions were separately activated with anti-CD3/anti-CD28 beads and subjected to lentiviral transduction with a vector encoding an anti-CD19 CAR. […]\nPrior to use, the cryopreserved CD4+ and CD8+ CAR-engineered cell compositions were thawed and combined at approximately a 1:1 CD4:CD8 ratio for each donor to prepare a combined CD4+ CAR+ and CD8+ CAR+ T cell composition. The effects of treatment with Compound 17 at various concentrations (0.1 nM, 1 nM, 10 nM, 100 nM, or 1000 nM) added at day 0 during stimulation of the combined CAR-T cell composition with a plate-bound CAR-specific anti-idiotypic antibody (see, e.g., WO2018/023100) or during co-culture with CD19-expressing cells was then assessed. […]"}, "[2]": {"system": "anti-CD19 CAR-expressing T cells", "experiment": "Rescue treatment of chronically stimulated CAR-T cells: cytokine production (MSD), 2D co-culture", "conditions": "48 hours 2D co-culture with K562.CD19, Granta-519, Raji", "method": "(§1) Anti-CD19 CAR-expressing T cells, produced as described in Example 1, were chronically stimulated with plate-bound CAR-specific anti-idiotypic antibody for seven days as described in Example 2, but in the absence of Compound 17 during chronic stimulation. Instead, chronically stimulated CAR T cells were treated with Compound 17 during re-challenge with CD19-expressing tumor cells, after which cytolytic activity and cytokine production were assessed.\n(§2) Supernatant was collected after 48 hours from the above co-cultures of chronically stimulated CAR-expressing T cells and CD19-expressing tumor cells. Cytokine production was measured from the supernatant by meso scale discovery (MSD) analysis of the collected cell supernatants. […] Duplicate values for cell compositions manufactured from the two different healthy donors are shown."}, "[3]": {"system": "anti-CD19 CAR-expressing T cells", "experiment": "Cytolytic function of CAR-T cells co-cultured with CD19-expressing lymphoma cells in presence of compound", "conditions": "co-culture with K562.CD19, Granta-519 and Raji cells, 2.5:1 effector:target, compound present", "method": "The cytolytic function of T cells treated with Compound 17 was assessed following co-culture of the combined CAR-T cell composition with various CD19-expressing lymphoma cells at a 2.5:1 effector:target ratio in the presence of Compound 17. The target lymphoma cells were labeled with NucLight Red (NLR) to permit their tracking by microscopy. Cytolytic activity was assessed by measuring the loss of viable target cells over a period of four to seven days, as determined by red fluorescent signal (using the IncuCyte® Live Cell Analysis System, Essen Bioscience).\nTriplicate values for cell compositions manufactured from the two different healthy donors are shown."}, "[4]": {"system": "anti-CD19 CAR-expressing T cells", "experiment": "Cytokine production (MSD) of CAR-T cells concurrently treated during chronic stimulation, 3D tumor spheroids", "conditions": "concurrent treatment during chronic stimulation; five days 3D co-culture with A549.CD19 and Granta-519 spheroids", "method": "To simulate conditions of chronic stimulation, approximately 20,000 anti-CD19 CAR-expressing T cells of a combined CAR-T cell composition produced as described in Example 1 from two healthy adult donors were incubated with 30 μg/mL of plate-bound CAR-specific anti-idiotypic antibody (see, e.g., WO2018/023100) at 37° C. for a period of seven days. During this seven-day period, engineered CAR T cells were concurrently treated with Compound 17 (0.1-1000 nM) or a vehicle control added at day 0.\nTo further assess activity of chronically stimulated cell, the chronically stimulated CAR-T cells that had been concurrently treated with DGKi were incubated with A549 CD19+ tumor spheroids or Granta-519 tumor spheroids to rechallenge the CAR-T cells at an effector to target ratio of 1:2 for up to 14 days. The tumor spheroids were engineered to express a red fluorescent dye to permit monitoring of tumor cell lysis by microscopy during the assay.\nas §2, with “at day 5” for “after 48 hours”, “tumor spheroid cultures with” for “co-cultures of”, “T” for “T cells and CD19-expressing tumor”"}, "[5]": {"system": "anti-CD19 CAR-expressing T cells", "experiment": "Rescue treatment of chronically stimulated CAR-T cells: cytokine production (MSD), 3D tumor spheroids", "conditions": "five days 3D co-culture with A549.CD19 and Granta-519 spheroids", "method": "as §1\nas §2, with “at day 5” for “after 48 hours”, “tumor spheroid cultures with” for “co-cultures of”, “T” for “T cells and CD19-expressing tumor”"}, "anti-HPV16 eTCR T cells": {"system": "anti-HPV16 eTCR T cells", "experiment": "Proliferation (cell counts) of chronically stimulated eTCR T cells re-stimulated with anti-Vbeta antibody", "conditions": "re-stimulation 7 days with 20 μg/mL anti-Vbeta, 100 nM compound", "source_text": "Primary human CD4+ and CD8+ T cells were isolated from healthy donors by immunoaffinity-based methods. The isolated CD4+ and CD8+ T cells were combined and stimulated with an anti-CD3/anti-CD28 reagent, and then were transduced with a lentiviral vector encoding an anti-human papillomavirus 16 (anti-HPV16) eTCR. The nucleotide sequences encoding the beta chain and the alpha chain of the eTCR were separated by a sequence encoding a 2A ribosome skip element. Following transduction, the cells were cultured in media containing human serum and cytokines for 9-10 days prior to further assessment. In another experiment to assess activity of the DGKi to rescue or reverse exhaustion, eTCR T cells were chronically stimulated for 6 days as described above in the absence of Compound 17. […] As a control, chronically stimulated eTCR T cells were re-stimulated in the absence of Compound 17 for 7 days. At the end of the 7 day re-stimulation, cell counts were determined. […] As expected, in the absence of treatment with Compound 17, there was an overall reduction in the ability of chronically stimulated T cells to proliferate compared to fresh eTCR T cells (compare conditions (1) and (3))."}},
  "data": [
    {"compound": "CC[C@H]1CN([C@@H](CC)c2ccc(C(F)(F)F)cc2)[C@H](CC)CN1c1nc(=O)n(C)c2ccc(C#N)nc12", "note": "[Compound 17, 4-((2S,5R)-2,5-diethyl-4-((S)-1-(4-(trifluoromethyl)phenyl)propyl)piperazin-1-yl)-1-methyl-2-oxo-1,2-dihydropyrido[3,2-d]pyrimidine-6-carbonitrile]", "values": [
      {"measurement": "expression of CD27 and CD62L (% positive cells and MFI, presence vs. absence of compound)", "setting": "[1]", "value": "decreased"},
      {"measurement": "expression of CD69 and PD-1 (% positive cells and MFI, presence vs. absence of compound)", "setting": "[1]", "value": "increased"},
      {"measurement": "production of IFNγ, IL-2 and TNFα in supernatant", "setting": "[2]", "value": "dose-dependent increase in production of all three cytokines"},
      {"measurement": "cytolytic function (percent specific lysis)", "setting": "[3]", "value": "did not affect cytolytic function"},
      {"measurement": "production of IFNγ, IL-2 and TNFα in supernatant", "setting": "[4]", "value": "dose-dependent increase in production of all three cytokines"},
      {"measurement": "production of IFNγ, IL-2 and TNFα in supernatant", "setting": "[5]", "value": "dose-dependent increase in production of all three cytokines"},
      {"measurement": "proliferation of eTCR T cells (cell counts)", "setting": "anti-HPV16 eTCR T cells", "value": "increased proliferation"}
    ]}
  ]
}
